In publication PMC5471521, “Novel selective β1-adrenoceptor antagonists for concomitant cardiovascular and respiratory disease” (The FASEB Journal, 2017):
Like-named read-outs stand apart in the source and are kept apart here.

What was measured:
human β1-AR = target: T1, human β1-AR (Homo sapiens, UniProt P08588); assay: Antagonism of cimaterol-induced 3H-cAMP accumulation in CHO-β1 cells; type: cell-based; conditions: for Schild slope: CHO-β1 cells, 3 antagonist concentrations, 1 = competitive antagonism; for Kd: Gaddum equation, cimaterol agonist, mean ± SEM, read-out: Log Kd,β1 (converted); for SI1b (in vitro inhibition of functional response) = Kd,β2/Kd,β1: Kd values from antagonism of cimaterol-induced 3H-cAMP accumulation, Table 2; for β1 vs. β2 selectivity Kd,β2/Kd,β1: from antagonism of cimaterol-induced 3H-cAMP accumulation
T1 construct: expressed in transfected cells
Protocol: Confluent cells were examined (24-well plates, 5 h incubation at 37°C) as described in Baker ([45]). Antagonist Kd values were calculated from a rightward shift of the agonist concentration response curve by using the Gaddum equation as previously described ([46]).

CaCo-2 cells = assay: Bidirectional CaCo-2 permeability; type: in vitro ADME; conditions: for Apical-to-basolateral membrane permeability (class in words): bidirectional CaCo-2 assay; for Mass balance A-B: hydrochloride salts used
Protocol: (§1) CaCo-2 cells were grown in Transwell permeable supports, and confluency was assessed by transepithelial electrical resistance measurements (>270 Ω/cm^2) and by unidirectional permeability (apical-basolateral) of the low- and high-permeability reference compounds, ^14C-mannitol and ^3H-propranolol. NDD-713.HCl and -825.HCl (20 µM in HBSS that contained 20 mM HEPES, pH 7.4) were transferred to the donor compartment of Transwell plates and the acceptor compartments were filled with blank HBSS. Permeability was determined over 90 min by sampling both compartments. Quantitation of compound concentrations in donor and acceptor samples was by liquid chromatography–mass spectrometry (LC-MS; lower limit of quantification, 0.5–1.5 ng/ml), and for ^14C-mannitol and ^3H-propranolol, by liquid scintillation counting. Apparent permeability coefficients (Papp) were calculated as follows: Papp (cm/s) = dQ/dT × 1/(C0 × A), where dQ/dt = apparent steady-state transport rate (μmol/s); C0 = initial concentration in the chamber (μmol/cm^3); and A = surface area of CaCo-2 monolayer (0.3cm^2). Efflux ratios were calculated as the ratio of mean Papp values in B→A and A→B directions. Studies were carried out by CDCO.

[1] = Bidirectional CaCo-2 permeability; type: in vitro ADME; conditions: human, hydrochloride salts used; for efflux ratio at 90 min, 20 µM: Caco-2, pH 7.4, read-out: Efflux ratio Papp, B-A/Papp, A-B; for Papp A→B at 90 min, 20 µM: Caco-2, pH 7.4, 90 min, mean ± SD
Protocol: as §1

[2] = Protein binding by ultracentrifugation, rat plasma; type: in vitro ADME; conditions: male, Sprague-Dawley, read-out: fu rat plasma
Protocol: Protein binding of 1 µM NDD-713.HCl and -825.HCl in human and rat plasma, as well as human liver microsomes, was assessed by using the ultracentrifugation technique. Frozen human plasma (Australian Red Cross Blood Service, Melbourne, VIC, Australia) and rat plasma (male Sprague-Dawley rats; Charles River, Margate, Kent, United Kingdom) were thawed at 37°C. Human liver microsomes (XenoTech) were suspended in 0.1 M phosphate buffer (pH 7.4) at protein concentrations of 0.4 mg/ml. Samples were collected immediately as stability reference controls. Spiked plasma samples (but not microsome samples) were incubated at 37°C for 1 h. […] NDD-713.HCl and -825.HCl concentrations of noncentrifuged matrix and protein-free supernatant were determined by UPLC-MS relative to calibration standards prepared in the respective matrices. Total concentration (Ctotal) was the average measured concentration in […] samples maintained at 37°C, and unbound concentration (Cunbound) was the average measured concentration in protein-free supernatants from centrifuged samples (n = 3). The compound unbound fraction (fu) was calculated: fu = Cunbound/Ctotal. Compound degradation was assessed by comparing concentrations in noncentrifuged plasma samples that were incubated at 37°C with concentrations measured in the t = 0 noncentrifuged samples. […]

[3] = Lipophilicity (chromatographic logD); type: physicochemical; conditions: octanol/water, estimated from chromatographic retention
Protocol: Octanol–water partition coefficient values (logD) of NDD-713 and -825 were estimated as described in Lombardo et al. ([49]) by correlation of the chromatographic retention properties of compounds against the characteristics of standard compounds with known partition coefficient values. Studies were carried out by CDCO.

human β3-AR = target: T2, human β3-AR (Homo sapiens, UniProt P13945); assay: Radioligand binding at human β3-AR
T2 construct: expressed in transfected cells
Protocol: Chinese hamster ovary (CHO) cells that stably express human β1-ARs (CHO-β1: 1146 fmol/mg protein), human β2-ARs (CHO-β2: 466 fmol/mg protein), or human β3-ARs (CHO-β3: 790 fmol/mg protein) were grown as previously described ([11]). Human bronchial smooth muscle cells were obtained from Lonza (Basel, Switzerland) and grown in manufacturer media. Rat β-AR binding experiments (DNA from cDNA Resource Centre, Bloomsburg, PA, USA) were conducted by using transiently transfected CHO cells ([44]).
Confluent cells were examined (96-well plates, 2 h incubation at 37°C) as previously described ([11]) with ^3H-CGP12177 at 0.43–3.03 nM. Propranolol (10 μM) defined nonspecific binding. Kd values were derived from IC50 values by using the Cheng-Prusoff equation as previously described ([11]).

[4] = target: noradrenaline transporter (Homo sapiens, UniProt P23975); assay: Cerep radioligand-binding assay
Protocol: (§2) […]; Ki (inhibition constant) was calculated by using the Cheng-Prusoff equation from the mean of duplicate determinations in cell-based receptor radioligand-binding assays. Cerep in vitro pharmacology profiling service was used (see the Supplemental Data for a list of the assays used).

dopamine transporter = dopamine transporter (Homo sapiens, UniProt Q01959); assay: Cerep radioligand-binding assay
Protocol: as §2

5-HT2B = 5-HT2B (Homo sapiens, UniProt P41595); assay: Cerep receptor radioligand-binding assay; conditions: concentration-response, Cheng-Prusoff
Protocol: as §2

[5] = pH 3, chromatographic estimate, read-out: Distribution coefficient, pH 3 (gLogDpH 3)
[6] = pH 7.4, chromatographic estimate, read-out: Distribution coefficient, pH 7.4 (gLogDpH 7.4)
[7] = concentration-response, Cheng-Prusoff

T1 sequence (P08588 whole entry): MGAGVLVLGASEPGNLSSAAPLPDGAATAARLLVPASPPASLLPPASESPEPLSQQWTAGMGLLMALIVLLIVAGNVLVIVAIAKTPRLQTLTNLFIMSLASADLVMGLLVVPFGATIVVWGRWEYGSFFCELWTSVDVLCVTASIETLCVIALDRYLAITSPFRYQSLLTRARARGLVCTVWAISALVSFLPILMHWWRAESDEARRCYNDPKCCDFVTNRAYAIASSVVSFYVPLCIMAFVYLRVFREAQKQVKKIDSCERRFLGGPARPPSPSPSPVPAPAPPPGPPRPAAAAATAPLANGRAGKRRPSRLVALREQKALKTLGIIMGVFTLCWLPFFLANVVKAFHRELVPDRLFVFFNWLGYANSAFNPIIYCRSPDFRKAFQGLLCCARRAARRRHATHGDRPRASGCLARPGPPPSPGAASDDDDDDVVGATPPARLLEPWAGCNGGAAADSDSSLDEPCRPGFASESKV
Sequence of noradrenaline transporter (P23975 whole entry): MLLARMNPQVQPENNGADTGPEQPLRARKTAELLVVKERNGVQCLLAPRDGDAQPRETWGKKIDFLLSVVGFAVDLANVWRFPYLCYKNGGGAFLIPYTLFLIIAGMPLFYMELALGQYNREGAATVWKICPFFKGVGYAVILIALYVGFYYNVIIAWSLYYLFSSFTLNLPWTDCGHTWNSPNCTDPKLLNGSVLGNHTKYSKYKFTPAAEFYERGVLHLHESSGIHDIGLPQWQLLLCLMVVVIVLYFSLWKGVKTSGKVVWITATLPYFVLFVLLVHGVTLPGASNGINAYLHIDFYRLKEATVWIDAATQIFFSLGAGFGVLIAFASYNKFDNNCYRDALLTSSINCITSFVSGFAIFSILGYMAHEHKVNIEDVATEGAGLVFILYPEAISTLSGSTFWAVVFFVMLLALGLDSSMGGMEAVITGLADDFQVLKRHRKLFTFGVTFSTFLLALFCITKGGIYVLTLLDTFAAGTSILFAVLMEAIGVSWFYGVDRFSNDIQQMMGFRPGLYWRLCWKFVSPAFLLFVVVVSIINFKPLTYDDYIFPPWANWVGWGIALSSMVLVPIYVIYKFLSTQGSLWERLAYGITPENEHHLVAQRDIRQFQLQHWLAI
Sequence of dopamine transporter (Q01959 whole entry): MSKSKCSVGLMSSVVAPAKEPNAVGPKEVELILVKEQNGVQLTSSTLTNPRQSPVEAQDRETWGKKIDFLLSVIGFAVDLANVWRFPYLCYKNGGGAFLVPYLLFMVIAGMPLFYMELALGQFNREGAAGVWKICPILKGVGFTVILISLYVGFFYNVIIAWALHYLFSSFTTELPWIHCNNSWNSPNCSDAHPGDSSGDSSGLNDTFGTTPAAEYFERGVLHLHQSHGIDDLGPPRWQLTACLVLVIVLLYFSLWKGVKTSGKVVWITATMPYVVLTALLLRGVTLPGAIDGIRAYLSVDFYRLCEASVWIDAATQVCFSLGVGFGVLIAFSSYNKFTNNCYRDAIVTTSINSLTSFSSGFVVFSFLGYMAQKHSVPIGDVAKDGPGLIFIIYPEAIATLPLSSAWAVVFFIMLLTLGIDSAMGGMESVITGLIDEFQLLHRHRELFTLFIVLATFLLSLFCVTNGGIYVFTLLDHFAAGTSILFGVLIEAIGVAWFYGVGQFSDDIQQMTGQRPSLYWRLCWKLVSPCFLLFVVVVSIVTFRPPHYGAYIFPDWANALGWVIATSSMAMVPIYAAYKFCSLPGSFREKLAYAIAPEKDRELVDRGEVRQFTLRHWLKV
T2 sequence (P13945 whole entry): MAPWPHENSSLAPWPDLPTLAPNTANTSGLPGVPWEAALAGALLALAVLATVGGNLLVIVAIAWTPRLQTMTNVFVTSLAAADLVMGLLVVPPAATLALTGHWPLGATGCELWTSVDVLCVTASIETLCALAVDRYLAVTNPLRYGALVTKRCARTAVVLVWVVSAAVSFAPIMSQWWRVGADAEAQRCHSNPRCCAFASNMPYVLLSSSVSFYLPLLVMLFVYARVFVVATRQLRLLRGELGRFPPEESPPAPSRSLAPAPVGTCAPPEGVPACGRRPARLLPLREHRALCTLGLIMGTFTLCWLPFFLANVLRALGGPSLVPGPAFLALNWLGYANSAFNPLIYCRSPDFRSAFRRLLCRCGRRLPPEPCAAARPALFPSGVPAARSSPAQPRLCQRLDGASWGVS
Sequence of 5-HT2B (P41595 whole entry): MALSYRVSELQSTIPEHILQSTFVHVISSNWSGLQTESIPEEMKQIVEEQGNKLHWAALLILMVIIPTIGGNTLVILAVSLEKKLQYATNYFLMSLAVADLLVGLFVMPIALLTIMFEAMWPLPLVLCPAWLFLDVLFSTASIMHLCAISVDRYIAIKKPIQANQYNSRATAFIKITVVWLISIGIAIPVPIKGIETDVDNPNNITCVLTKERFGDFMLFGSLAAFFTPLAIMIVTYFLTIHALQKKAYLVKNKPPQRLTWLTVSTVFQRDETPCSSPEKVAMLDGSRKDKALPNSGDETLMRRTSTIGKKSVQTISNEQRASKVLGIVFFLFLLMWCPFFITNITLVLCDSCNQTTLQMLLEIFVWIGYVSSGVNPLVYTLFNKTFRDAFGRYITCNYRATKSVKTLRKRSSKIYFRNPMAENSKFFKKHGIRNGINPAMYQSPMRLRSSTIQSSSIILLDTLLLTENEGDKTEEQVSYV

In the case of `O=C1NCc2cc(OCCNC[C@H](O)COc3ccc4c(c3)OC[C@@H](COCC3CC3)O4)ccc21` [NDD-825], the Schild slope (human β1-AR) is reported as 1.04 ± 0.02, the Kd (human β1-AR) is reported as 0.00102 µM and the “SI1b (in vitro inhibition of functional response) = Kd,β2/Kd,β1” value (human β1-AR) is reported as 1738. The “β1 vs. β2 selectivity Kd,β2/Kd,β1” value (human β1-AR) was 1738, the “Apical-to-basolateral membrane permeability (class in words)” value (CaCo-2 cells) was “intermediate” and the “Mass balance A-B” value (CaCo-2 cells) was 79 ± 11%. For the same molecule, the efflux ratio at 90 min, 20 µM [1] was less than 3, the Papp A→B at 90 min, 20 µM [1] was 65 ± 5 nm/s and the fraction unbound at 1 h, 1 µM [2] was 0.11. The chromatographic logD [3, 5] was 1.5, the chromatographic logD [3, 6] was 2 and the “Affinity at human β3-AR” value (human β3-AR) was “so low that accurate measurements were not possible”.
With `NC(=O)c1ccc(OCCNC[C@H](O)COc2ccc3c(c2)OC[C@@H](COCC2CC2)O3)cc1` [NDD-713] the “β1-AR vs. noradrenaline transporter selectivity” value [4] was 185 fold, the Ki [4, 7] was 2.8 µM and the “β1-AR vs. dopamine transporter selectivity” value (dopamine transporter) was 53 fold. For the same molecule, the Ki (dopamine transporter; [7]) was 0.8 µM, the Schild slope (human β1-AR) was 1.06 ± 0.03 and the Kd (human β1-AR) was 0.00302 µM. The “SI1b (in vitro inhibition of functional response) = Kd,β2/Kd,β1” value (human β1-AR) was 1202, the “β1 vs. β2 selectivity Kd,β2/Kd,β1” value (human β1-AR) was 1202 and the “Apical-to-basolateral membrane permeability (class in words)” value (CaCo-2 cells) was “high”. The “Mass balance A-B” value (CaCo-2 cells) was 76 ± 10%, the efflux ratio at 90 min, 20 µM [1] was less than 3 and the Papp A→B at 90 min, 20 µM [1] was 250 ± 40 nm/s. It also gave a fraction unbound at 1 h, 1 µM [2] of 0.16, a chromatographic logD [3, 5] of 1.7 and a chromatographic logD [3, 6] of 2.3. For the same molecule, the “Affinity at human β3-AR” value (human β3-AR) was “so low that accurate measurements were not possible” and the Ki (5-HT2B) was greater than 10 µM.
